Source: US20250223331A1, “GLP-1/GIP DUAL-TARGETED POLYPEPTIDE AND FUSION PROTEIN AND APPLICATIONS THEREOF” (SUNSHINE LAKE PHARMA CO., LTD., priority 2021, published 2025)
Marks after values point to notes of the source that are not given here. Where no end group is shown, it is not given here.

How the values were obtained:
[1] = molecular target: T1, GIPR (Homo sapiens, UniProt P48546); assay: cAMP assay, in vitro activity of polypeptides, HEK293-GIPR cells; format: cell-based; details: read-out: Ec50(nM) of the peptide GIPR
T1 construct: expressed in transfected cells; host or cells: HEK293 (pcDNA3.1, G418-selected single clone)
T1 sequence (P48546 22-466): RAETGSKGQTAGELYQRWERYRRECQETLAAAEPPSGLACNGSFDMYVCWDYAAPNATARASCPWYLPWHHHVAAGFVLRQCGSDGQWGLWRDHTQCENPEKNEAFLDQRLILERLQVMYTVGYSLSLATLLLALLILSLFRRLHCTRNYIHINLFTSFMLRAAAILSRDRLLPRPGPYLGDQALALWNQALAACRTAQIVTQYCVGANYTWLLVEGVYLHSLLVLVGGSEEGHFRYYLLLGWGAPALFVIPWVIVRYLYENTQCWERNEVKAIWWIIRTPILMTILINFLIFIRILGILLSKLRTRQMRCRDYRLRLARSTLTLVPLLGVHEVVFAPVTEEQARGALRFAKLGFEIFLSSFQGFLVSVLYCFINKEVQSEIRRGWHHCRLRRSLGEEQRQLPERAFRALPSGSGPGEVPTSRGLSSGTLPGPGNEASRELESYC
Procedure: (§1) The digested product was electrophoresed on 1% agarose gel and the target band was cut out with a clean blade, then a gel recovery kit was used to recover the target fragment. The specific experimental operations are carried out according to the kit instructions; • 3) The target fragment enzymatic digestion recovery product and vector plasmid pcDNA3.1 fragment were connected through T4 ligase and transformed into DH5a competent cells, then single colonies were isolated by spreading on plates, and the transformants were selected and expanded for enzyme digestion verification and sequencing verification. • 4) 200 mL of the bacterial liquid obtained in inoculation step 3) and verified by sequencing to contain the fusion protein of the target product was used for plasmid extraction. The kit used was PureLink HiPure Plasmid Maxiprep Kit, and according to the instructions. […] Finally, the ethanol precipitation method was used to recover the plasmid. • 5) The host cells were HEK293, one day before transfection, the cells were spread into a 6-well plate at a density of 2×10^6 cells/well, and the addition volume was 1 mL/well.
(§2) Using a cAMP detection kit (Cisbio, 62AM6PEC) to detect cAMP produced by the recipient cells according to the steps described in the operating instructions. […] If the mixture was not completely melted within 1.5 min, the cells were added dropwise to a 15 mL centrifuge tube containing 8 mL warm culture medium on a clean bench, then centrifuged at 900 rpm for 5 min, the supernatant was discarded, and the cells were re-suspended with 1 mL complete culture medium (15 times by pipetting).

[2] = molecular target: GLP-1R (Homo sapiens, UniProt P43220); assay: cAMP assay, in vitro activity of polypeptides, HEK293-GLP-1R cells; format: cell-based; parameters: expressed in transfected cells; host or cells: HEK293 (pcDNA3.1, G418-selected single clone); details: for EC50: HEK293-GLP-1R, cAMP, read-out: Ec50(nM) of the peptide GLP-1R
Procedure: as §1, §2

[3] = tested on: DIO mice; assay: in vivo efficacy in DIO model: body weight, food intake, liver, blood biochemistry
Description: Experimental methods: C57/BL6 mice were randomly divided into normal group NFD and model group HFD at the fifth week of age, and the normal group was fed with ordinary maintenance diet, while the model group was fed with high-fat diet D12492. Changes in body weight and food intake in mice were monitored every 3 weeks. After 16 weeks of feeding, the body weight of mice in the model group and the normal group were (47.9±3.4) g and (29.6±1.5) g, respectively, and the difference between the two groups was statistically significant. The normal group was divided into the control group, and the model group mice that were successfully modeled were divided into Vehicle group, Semaglutide group, HEC-G115 group and HEC-G124 group, with 10 mice in each group. For the groups of Semaglutide, HEC-G115 and HEC-G124, the corresponding drug was injected subcutaneously in each group, and PBS was injected subcutaneously in the Vehicle group. […] Weight and food intake were measured before each dose. After 3 weeks of administration, an intraperitoneal glucose tolerance test was performed. After 72 h of the last administration, samples were collected, liver weight was recorded, and liver pathological status and blood biochemical indexes were detected in each group.

[4] = tested on: db/db mice; assay: in vivo efficacy in db/db mouse model, blood glucose; details: 10 nmol/kg s.c.
Procedure: Methods: 7-8 week old db/db mice were randomly divided into 3 groups (Model group, Semaglutide group, HEC-G20 group) according to blood glucose and body weight, with 9 mice in each group. For the groups of Semaglutide (Semaglutide was purchased from Novo Nordisk, lot number was JP52092) and HEC-G20, the corresponding drug was administered subcutaneously into the mice at a dose of 10 nmol/kg for each group, and for the Model group, the corresponding vehicle was injected subcutaneously. The Semaglutide group was dosed once a day, and the HEC-G20 group was dosed twice a week for a total of 4 weeks, and animal blood glucose was tested before each dose.

[5] = long-term administration 10 nmol/kg s.c., 72 h after last administration
[6] = long-term administration 10 nmol/kg s.c., blood biochemistry

Chain of GLP-1R (P43220 24-463, species assumed): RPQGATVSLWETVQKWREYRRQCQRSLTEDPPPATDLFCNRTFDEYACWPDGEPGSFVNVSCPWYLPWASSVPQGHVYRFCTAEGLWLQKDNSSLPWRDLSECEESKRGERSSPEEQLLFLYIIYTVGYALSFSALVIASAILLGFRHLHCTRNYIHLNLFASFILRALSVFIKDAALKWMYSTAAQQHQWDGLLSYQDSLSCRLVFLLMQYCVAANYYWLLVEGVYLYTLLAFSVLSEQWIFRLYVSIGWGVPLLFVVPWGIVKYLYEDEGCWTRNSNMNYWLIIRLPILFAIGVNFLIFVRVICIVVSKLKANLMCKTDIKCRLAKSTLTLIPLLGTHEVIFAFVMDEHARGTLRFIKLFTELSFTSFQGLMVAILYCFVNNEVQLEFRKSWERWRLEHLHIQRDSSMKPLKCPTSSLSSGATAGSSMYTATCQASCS

## YSEGTFTSDYSILLDKIAQQEFIEWLIAGGPSSGAPPPS [CG135, YSEGTFTSDYSILLDKIAQQEFIEWLIAG GPSSGAPPPS]
[1]
  EC50: 0.015 nM
[2]
  EC50: 0.558 nM

## YSEGTFTSDYSILLDKIAQQEFIEWLLAGGPSSGAPPPS [CG134, YSEGTFTSDYSILLDKIAQQEFIEWLLAG GPSSGAPPPS]
[1]
  EC50: 0.012 nM
[2]
  EC50: 2.15 nM
[2]; peptides
  GLP-1R agonistic activity: weaker GLP-1R agonistic activities

## YGEGTFTSDYSILLDKIAQREFIEWLLAGGPSSGAPPPS [CG126, YGEGTFTSDYSILLDKIAQREFIEWLLAG GPSSGAPPPS]
[1]
  EC50: 0.027 nM
[2]
  EC50: 0.918 nM

## YSEGTFTSDYSILLDKIAQREFIEWLLAGGPSSGAPPPS [CG115, YSEGTFTSDYSILLDKIAQREFIEWLLAG GPSSGAPPPS]
[1]
  EC50: 0.005 nM
[2]
  EC50: 0.291 nM

## YSEGTFTSDYSILLDKKAQRDFIEWLLAGGPSSGAPPPS [CG127, YSEGTFTSDYSILLDKKAQRDFIEWLLAG GPSSGAPPPS]
[1]
  EC50: 0.084 nM
[2]
  EC50: 0.364 nM

## Semaglutide [reference compound]
[3]; 10 nmol/kg s.c. repeated, D 7-10
  Cumulative food intake D 7-10: 15.7 g/pcs
[3]; 10 nmol/kg s.c. repeated, D 10
  Weight growth rate D 10: −17.6 ± 5.1%
[3]; 10 nmol/kg s.c. repeated, D 11-13
  Cumulative food intake D 11-13: 20.7 g/pcs
[3]; 10 nmol/kg s.c. repeated, D 13
  Weight growth rate D 13: −21.3 ± 5.8%
[3]; 10 nmol/kg s.c. repeated, D 14-16
  Cumulative food intake D 14-16: 27.9 g/pcs
[3]; 10 nmol/kg s.c. repeated, D 16
  Weight growth rate D 16: −22.3 ± 5.3%
[3]; 10 nmol/kg s.c. repeated, D 17-19
  Cumulative food intake D 17-19: 35.7 g/pcs
[3]; 10 nmol/kg s.c. repeated, D 19
  Weight growth rate D 19: −21.6 ± 5.6%
[3]; 10 nmol/kg s.c. repeated, D 20-22
  Cumulative food intake D 20-22: 41.8 g/pcs
[3]; 10 nmol/kg s.c. repeated, D 22
  Weight growth rate D 22: −24.2 ± 6.2%
[3]; 10 nmol/kg s.c. repeated, D 23-27
  Cumulative food intake D 23-27: 55.0 ^a g/pcs
[3]; 10 nmol/kg s.c. repeated, D 25
  Weight growth rate D 25: −23.2 ± 6.0^a %
[3]; 10 nmol/kg s.c., D 0
  Cumulative food intake D 0: 0.7 g/pcs
  Weight growth rate D 0: 0.0 ± 0.0%
[3]; 10 nmol/kg s.c., D 1
  Cumulative food intake D 1: 1.8 g/pcs
  Weight growth rate D 1: −5.3 ± 1.0%
[3]; 10 nmol/kg s.c., D 2
  Cumulative food intake D 2: 3.2 g/pcs
  Weight growth rate D 2: −7.2 ± 1.2%
[3]; 10 nmol/kg s.c., D 3
  Cumulative food intake D 3: 5.3 g/pcs
  Weight growth rate D 3: −8.2 ± 1.6%
[3]; 10 nmol/kg s.c., D 4
  Cumulative food intake D 4: 8.2 g/pcs
  Weight growth rate D 4: −7.4 ± 2.8%
[3]; 10 nmol/kg s.c., D 5
  Cumulative food intake D 5: 10.2 g/pcs
  Weight growth rate D 5: −6.7 ± 3.7%
[3]; 10 nmol/kg s.c., D 6
  Cumulative food intake D 6: 12.5 g/pcs
  Weight growth rate D 6: −8.2 ± 3.8%
[3]; 10 nmol/kg s.c., D 7
  Weight growth rate D 7: −8.1 ± 4.7%
[3]; liver weight, long-term administration 10 nmol/kg s.c., 72 h after last administration
  Liver: 1.0 ± 0.2 ^a g
[3]; [5]
  Body weight: 33.0 ± 2.7^a g
  Liver index: 3.0 ± 0.0 ^a %
[3]; [6]
  ALT: 19.3 ± 4.3 ^a U/L
  AST: 109.4 ± 9.2 ^a U/L
  CHOL: 2.7 ± 0.4 ^a mmol/L
  TRIGL: 0.7 ± 0.1 mmol/L
[4]; 1.5 h
  Random blood glucose 1.5 h: 15.9 ± 3.4 mM
[4]; 5 h
  Random blood glucose 5 h: 15.4 ± 4.0 mM
[4]; 7 h
  Random blood glucose 7 h: 16.3 ± 4.2 mM
[4]; Semaglutide once a day, HEC-G20 twice a week, D 0
  Random blood glucose D 0: 25.7 ± 3.7 mM
[4]; Semaglutide once a day, HEC-G20 twice a week, D 3
  Random blood glucose D 3: 11.6 ± 4.1 mM
[4]; Semaglutide once a day, HEC-G20 twice a week, D 7
  Random blood glucose D 7: 14.9 ± 4.2 mM
[4]; Semaglutide once a day, HEC-G20 twice a week, D 10
  Random blood glucose D 10: 17.1 ± 4.2 mM
[4]; Semaglutide once a day, HEC-G20 twice a week, D 14
  Random blood glucose D 14: 18.1 ± 3.1 mM
[4]; Semaglutide once a day, HEC-G20 twice a week, D 17
  Random blood glucose D 17: 18.5 ± 3.0 mM
[4]; Semaglutide once a day, HEC-G20 twice a week, D 21
  Random blood glucose D 21: 18.0 ± 3.3 mM
[4]; Semaglutide once a day, HEC-G20 twice a week, D 24
  Random blood glucose D 24: 19.9 ± 2.2 ^a mM

## YSEGTFTSDYSILLDKIAQREFIEWLIAGGPSSGAPPPS [CG122, YSEGTFTSDYSILLDKIAQREFIEWLIAG GPSSGAPPPS]
[1]
  EC50: 0.016 nM
[2]
  EC50: 0.191 nM
